{"source": "patent US5258378A", "about": "“Pyrroloazepine compounds useful as dopaminergic agents” (Lilly Industries Limited, priority 1990, dated 1993)", "target": "T1, dopamine, D1 receptors (Rattus norvegicus, UniProt P18901)", "T1 construct": "from tissue; host or cells: rat striatum (inferred from the cited Billard et al. 1984)", "T1 sequence (P18901 whole entry)": "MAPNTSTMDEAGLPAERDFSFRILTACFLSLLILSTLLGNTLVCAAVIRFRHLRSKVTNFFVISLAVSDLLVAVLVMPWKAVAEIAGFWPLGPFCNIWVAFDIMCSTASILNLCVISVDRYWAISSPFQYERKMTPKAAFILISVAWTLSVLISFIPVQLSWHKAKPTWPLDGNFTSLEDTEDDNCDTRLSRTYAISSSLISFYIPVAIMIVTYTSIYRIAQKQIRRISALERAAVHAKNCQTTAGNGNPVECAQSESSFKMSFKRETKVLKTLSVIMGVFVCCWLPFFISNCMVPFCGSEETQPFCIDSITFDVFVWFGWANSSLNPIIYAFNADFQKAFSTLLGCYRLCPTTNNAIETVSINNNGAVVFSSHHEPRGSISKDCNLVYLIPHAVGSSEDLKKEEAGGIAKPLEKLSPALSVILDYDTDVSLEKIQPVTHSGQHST", "assay": "3H-SCH23390 binding test (Billard et al.)", "conditions": "3H-SCH23390 radioligand; read-out: IC50 value (the concentration of the compound required to reduce the binding of 3H-SCH23390 by 50%)", "text": "As mentioned above, the compounds of formula (I), with the exception of those in which both R^1 and R^2 are hydrogen and those in which R^3 in optionally substituted phenylsulphonyl, have useful central nervous system activity with low toxicity. […] The compounds of formula (I) and pharmaceutically-acceptable acid addition salts thereof, are potent centrally acting compounds which are useful in the treatment of depression, mild anxiety states, certain kinds of psychotic conditions such as schizophrenia and acute mania and parkinsonism.", "data": [{"smiles": "CN1CCc2c([nH]c(Br)c2Br)C(c2ccccc2)C1", "note": "(racemic) [Example 10, 2,3-Dibromo-1,4,5,6,7,8-hexahydro-6-methyl-8-phenylpyrrolo[2,3-d]azepine]", "values": [{"measurement": "IC50", "result": 1.1, "unit": "µM"}]}, {"smiles": "CN1CCc2c(Br)c[nH]c2C(c2ccccc2)C1", "note": "(racemic) [Example 12, 3-Bromo-1,4,5,6,7,8-hexahydro-6-methyl-8-phenylpyrrolo[2,3-d]azepine]", "values": [{"measurement": "IC50", "result": 0.15, "unit": "µM"}]}]}
